Measured values: patent US20110293744A1, “BENZOXAZOLE INHIBITORS OF POLY(ADP-RIBOSE)POLYMERASE” (ABBOTT LABORATORIES, priority 2009, published 2011)

Molecular target: T1, Recombinant Human Poly(ADP-Ribose) Polymerase (PARP), PARP-1 (Homo sapiens, UniProt P09874)
T1 construct: purchased Trevigen; host or cells: E. coli
Assay: PARP Enzyme Inhibition Assay (PARP1, SPA/FlashPlate)
Format: biochemical
Details: 1 nM PARP enzyme, [3H]-NAD+, 200 nM biotinylated histone H1, 200 nM slDNA
Experimental: Nicotinamide[2,5′,8-3H]adenine dinucleotide and strepavidin SPA beads were purchased from Amersham Biosiences. Recombinant Human Poly(ADP-Ribose) Polymerase (PARP), purified from E. coli and 6-Biotin-17-NAD^+, were purchase from Trevigen. NAD^+, histone, aminobenzamide, 3-amino benzamide and Calf Thymus DNA (dcDNA) were purchased from Sigma. Stem loop oligonucleotide containing MCAT sequence was obtained from Qiagen. The oligos were dissoloved to 1 mM in annealing buffer containing 10 mM Tris HCl pH 7.5, 1 mM EDTA, and 50 mM NaCl, incubated for 5 minutes at 95° C., and annealed at 45° C. for 45 minutes. Histone H1 (95% electrophoretically pure) was purchased from Roche. Biotinylated histone H1 was prepared by treating the protein with Sulfo-NHS-LC-Biotin from Pierce. The biotinylation reaction was conducted by slowly and intermittently adding 3 equivalents of 10 mM Sulfo-NHS-LC-Biotin to 100 μM Histone H1 in phosphate-buffered saline, pH 7.5, at 4° C. with gentle vortexing over 1 minute followed by subsequent 4° C. incubation for 1 hour. Streptavidin coated (FlashPlate Plus) microplates were purchased from Perkin Elmer.
PARP1 assay was conducted in PARP assay buffer containing 50 mM Tris pH 8.0, 1 mM DTT, 4 mM MgCl2. PARP reactions contained […] [^3H]-NAD^+ (1.6 uCi/mmol), 200 nM biotinylated histone H1, 200 nM slDNA, and 1 nM PARP enzyme. Auto reactions utilizing SPA bead-based detection were carried out in 100 μL volumes in white 96 well plates. Reactions were initiated by adding 50 μl of 2×NAD^+ substrate mixture to 50 μL of 2× enzyme mixture containing PARP and DNA. These reactions were terminated by the addition of 150 μL of 1.5 mM benzamide (˜1000-fold over its IC50). 170 μL of the stopped reaction mixtures were transferred to streptavidin Flash Plates, incubated for 1 hour, and counted using a TopCount microplate scintillation counter.

T1 sequence (P09874 whole entry): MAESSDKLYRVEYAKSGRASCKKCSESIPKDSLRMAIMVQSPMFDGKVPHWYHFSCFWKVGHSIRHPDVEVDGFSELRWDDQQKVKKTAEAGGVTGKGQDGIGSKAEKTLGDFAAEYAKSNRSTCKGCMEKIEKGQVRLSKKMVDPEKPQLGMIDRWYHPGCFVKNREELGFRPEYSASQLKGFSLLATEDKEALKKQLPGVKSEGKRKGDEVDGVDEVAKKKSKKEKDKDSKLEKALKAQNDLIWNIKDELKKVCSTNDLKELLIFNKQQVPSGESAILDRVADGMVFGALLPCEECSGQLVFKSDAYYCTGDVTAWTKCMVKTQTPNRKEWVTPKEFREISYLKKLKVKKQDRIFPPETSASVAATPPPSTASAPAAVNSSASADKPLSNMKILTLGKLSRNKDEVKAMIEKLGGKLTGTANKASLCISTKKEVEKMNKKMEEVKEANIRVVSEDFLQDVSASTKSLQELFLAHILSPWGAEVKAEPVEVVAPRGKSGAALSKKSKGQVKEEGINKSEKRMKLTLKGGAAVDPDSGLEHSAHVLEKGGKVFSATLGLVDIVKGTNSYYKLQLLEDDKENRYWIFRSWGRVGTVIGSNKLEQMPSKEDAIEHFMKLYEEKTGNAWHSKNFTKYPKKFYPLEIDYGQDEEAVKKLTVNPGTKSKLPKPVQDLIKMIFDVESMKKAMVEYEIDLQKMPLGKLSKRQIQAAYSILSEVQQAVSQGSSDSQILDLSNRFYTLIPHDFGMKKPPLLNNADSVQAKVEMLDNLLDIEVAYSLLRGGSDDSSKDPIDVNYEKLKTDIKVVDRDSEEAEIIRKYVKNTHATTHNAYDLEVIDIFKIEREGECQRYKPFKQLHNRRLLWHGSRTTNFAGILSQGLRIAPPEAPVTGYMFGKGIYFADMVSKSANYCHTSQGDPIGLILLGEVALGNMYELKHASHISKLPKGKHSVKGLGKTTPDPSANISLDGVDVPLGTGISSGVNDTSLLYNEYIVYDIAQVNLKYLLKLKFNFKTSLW

Compound	Ki [nM]
NC(=O)c1cccc2oc(-c3ccc(Br)cc3)nc12 [Example 1, 2-(4-bromophenyl)-1,3-benzoxazole-4-carboxamide]	142
NC(=O)c1cccc2oc(-c3ccc(-c4ccccc4)cc3)nc12 [Example 2, 2-(1,1′-biphenyl-4-yl)-1,3-benzoxazole-4-carboxamide]	9180
NC(=O)c1cccc2oc(-c3ccc(-c4cccnc4)cc3)nc12 [Example 3, 2-(4-pyridin-3-ylphenyl)-1,3-benzoxazole-4-carboxamide]	312
NC(=O)c1cccc2nc(-c3ccc(-c4ccccc4)cc3)oc12 [Example 5, 2-(1,1′-biphenyl-4-yl)-1,3-benzoxazole-7-carboxamide]	196
NC(=O)c1cccc2nc(-c3ccc(-c4ccc5c(c4)OCO5)cc3)oc12 [Example 6, 2-[4-(1,3-benzodioxol-5-yl)phenyl]-1,3-benzoxazole-7-carboxamide]	841
NC(=O)c1cccc2nc(-c3ccc(-c4cccc(N)c4)cc3)oc12 [Example 8, 2-(3′-amino-1,1′-biphenyl-4-yl)-1,3-benzoxazole-7-carboxamide]	3250
NC(=O)c1cccc2nc(-c3ccc(-c4ccncc4)cc3)oc12 [Example 10, 2-(4-pyridin-4-ylphenyl)-1,3-benzoxazole-7-carboxamide]	1620
NC(=O)c1cccc2oc(-c3ccccc3)nc12 [Example 12, 2-phenyl-1,3-benzoxazole-4-carboxamide]	506

The next compounds have a lower Ki than those just listed; values first:

Ki [nM]	Compound
109	NC(=O)c1cccc2nc(-c3ccc(-c4cc[nH]n4)cc3)oc12 [Example 7, 2-[4-(1H-pyrazol-3-yl)phenyl]-1,3-benzoxazole-7-carboxamide]
63	NC(=O)c1cccc2nc(-c3ccc(-c4cccnc4)cc3)oc12 [Example 9, 2-(4-pyridin-3-ylphenyl)-1,3-benzoxazole-7-carboxamide]
48	NC(=O)c1cccc2nc(-c3ccc(Br)cc3)oc12 [Example 4, 2-(4-bromophenyl)-1,3-benzoxazole-7-carboxamide]
11	NC(=O)c1cccc2nc(-c3ccc(-c4ccccn4)cc3)oc12 [Example 11, 2-(4-pyridin-2-ylphenyl)-1,3-benzoxazole-7-carboxamide]
